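96-well plates; 48 h exposure; 5 concentrations. Endpoints by linear interpolation between flanking doses. Not reached: highest tested concentration assigned. At the GI50, growth is halved. TGI: total growth inhibition.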
Key:
Test in all cases: NCI-60 cell line screen, 48 h
SNB-19 CNS = system: SNB-19 CNS
KM12 colon = system: KM12 colon
SK-MEL-28 melanoma = system: SK-MEL-28 melanoma
T-47D breast = system: T-47D breast
SK-MEL-5 melanoma = system: SK-MEL-5 melanoma
HCT-116 colon = system: HCT-116 colon
SR leukemia = system: SR leukemia
HL-60(TB) leukemia = system: HL-60(TB) leukemia
MALME-3M melanoma = system: MALME-3M melanoma
RPMI-8226 leukemia = system: RPMI-8226 leukemia
RXF 393 renal = system: RXF 393 renal
LOX IMVI melanoma = system: LOX IMVI melanoma
SK-MEL-2 melanoma = system: SK-MEL-2 melanoma
CAKI-1 renal = system: CAKI-1 renal
ACHN renal = system: ACHN renal
HOP-62 NSCLC = system: HOP-62 NSCLC
OVCAR-8 ovarian = system: OVCAR-8 ovarian
PC-3 prostate = system: PC-3 prostate
SNB-75 CNS = system: SNB-75 CNS
HS 578T breast = system: HS 578T breast
UACC-62 melanoma = system: UACC-62 melanoma
HCT-15 colon = system: HCT-15 colon
OVCAR-5 ovarian = system: OVCAR-5 ovarian
OVCAR-3 ovarian = system: OVCAR-3 ovarian
HT29 colon = system: HT29 colon
SW-620 colon = system: SW-620 colon
TK-10 renal = system: TK-10 renal
NCI-H460 lung = system: NCI-H460 lung
IGROV1 ovarian = system: IGROV1 ovarian
HOP-92 NSCLC = system: HOP-92 NSCLC
HCC-2998 colon = system: HCC-2998 colon
SK-OV-3 ovarian = system: SK-OV-3 ovarian
MOLT-4 leukemia = system: MOLT-4 leukemia
U251 CNS = system: U251 CNS
MCF7 breast = system: MCF7 breast
MDA-MB-231 breast = system: MDA-MB-231 breast
NCI/ADR-RES ovarian = system: NCI/ADR-RES ovarian
SF-295 CNS = system: SF-295 CNS
UACC-257 melanoma = system: UACC-257 melanoma
DU-145 prostate = system: DU-145 prostate
SF-268 CNS = system: SF-268 CNS
CCRF-CEM leukemia = system: CCRF-CEM leukemia
NCI-H226 lung = system: NCI-H226 lung
COLO 205 colon = system: COLO 205 colon
BT-549 breast = system: BT-549 breast
A549 NSCLC = system: A549 NSCLC
K-562 leukemia = system: K-562 leukemia
NCI-H522 lung = system: NCI-H522 lung
A498 renal = system: A498 renal
NCI-H23 lung = system: NCI-H23 lung
EKVX NSCLC = system: EKVX NSCLC
SF-539 CNS = system: SF-539 CNS
OVCAR-4 ovarian = system: OVCAR-4 ovarian
SN12C renal = system: SN12C renal
MDA-MB-435 = system: MDA-MB-435

Molecule COc1cccc(C2SC(C)C(=O)N2CCc2cccs2)c1 (stereo not given) has a GI50 (SNB-19 CNS) of 2.96 µM, a TGI (SNB-19 CNS) of 13.7 µM and a GI50 (KM12 colon) of 2.67 µM. The TGI (KM12 colon) was 8.99 µM, the GI50 (SK-MEL-28 melanoma) was 3.6 µM and the TGI (SK-MEL-28 melanoma) was 14 µM. For the same molecule, the GI50 (T-47D breast) was 1.78 µM, the TGI (T-47D breast) was 11.6 µM and the GI50 (SK-MEL-5 melanoma) was 1.58 µM. The TGI (SK-MEL-5 melanoma) was 2.96 µM, the GI50 (HCT-116 colon) was 1.89 µM and the TGI (HCT-116 colon) was 8.36 µM. For the same molecule, the GI50 (SR leukemia) was 2.5 µM, the TGI (SR leukemia) was 15.5 µM and the GI50 (HL-60(TB) leukemia) was 2.59 µM. It also gave a TGI (HL-60(TB) leukemia) of 7.49 µM, a GI50 (MALME-3M melanoma) of 2.19 µM and a TGI (MALME-3M melanoma) of 8.09 µM. It also gave a GI50 (RPMI-8226 leukemia) of 1.88 µM, a TGI (RPMI-8226 leukemia) of 5.39 µM and a GI50 (RXF 393 renal) of 4.26 µM. For the same molecule, the TGI (RXF 393 renal) was 16.4 µM, the GI50 (LOX IMVI melanoma) was 2.48 µM and the TGI (LOX IMVI melanoma) was 11.6 µM. For the same molecule, the GI50 (SK-MEL-2 melanoma) was 2.77 µM, the TGI (SK-MEL-2 melanoma) was 11.5 µM and the GI50 (CAKI-1 renal) was 2.07 µM. It also gave a TGI (CAKI-1 renal) of 10.5 µM, a GI50 (ACHN renal) of 3.34 µM and a TGI (ACHN renal) of 13.8 µM. For the same molecule, the GI50 (HOP-62 NSCLC) was 3.12 µM, the TGI (HOP-62 NSCLC) was 14.9 µM and the GI50 (OVCAR-8 ovarian) was 3.49 µM. For the same molecule, the TGI (OVCAR-8 ovarian) was 14.3 µM, the GI50 (PC-3 prostate) was 2.05 µM and the TGI (PC-3 prostate) was 8.65 µM. It also gave a GI50 (SNB-75 CNS) of 3.2 µM, a TGI (SNB-75 CNS) of 15.7 µM and a GI50 (HS 578T breast) of 2.56 µM. For the same molecule, the TGI (HS 578T breast) was 26.8 µM, the GI50 (UACC-62 melanoma) was 1.76 µM and the TGI (UACC-62 melanoma) was 10.7 µM. It also gave a GI50 (HCT-15 colon) of 2.75 µM, a TGI (HCT-15 colon) of 12.5 µM and a GI50 (OVCAR-5 ovarian) of 4.05 µM. It also gave a TGI (OVCAR-5 ovarian) of 20 µM, a GI50 (OVCAR-3 ovarian) of 2.04 µM and a TGI (OVCAR-3 ovarian) of 7.6 µM. It also gave a GI50 (HT29 colon) of 3.24 µM, a TGI (HT29 colon) of 12 µM and a GI50 (SW-620 colon) of 3.48 µM. For the same molecule, the TGI (SW-620 colon) was 15.7 µM, the GI50 (TK-10 renal) was 2.79 µM and the TGI (TK-10 renal) was 11.7 µM. For the same molecule, the GI50 (NCI-H460 lung) was 2.83 µM, the TGI (NCI-H460 lung) was 11 µM and the GI50 (IGROV1 ovarian) was 2.01 µM. The TGI (IGROV1 ovarian) was 15.7 µM, the GI50 (HOP-92 NSCLC) was 1.16 µM and the TGI (HOP-92 NSCLC) was 4.37 µM. For the same molecule, the GI50 (HCC-2998 colon) was 2.93 µM, the TGI (HCC-2998 colon) was 12.3 µM and the GI50 (SK-OV-3 ovarian) was 2.95 µM. For the same molecule, the TGI (SK-OV-3 ovarian) was 13.2 µM, the GI50 (MOLT-4 leukemia) was 2.34 µM and the TGI (MOLT-4 leukemia) was 10.7 µM. The GI50 (U251 CNS) was 3.1 µM, the TGI (U251 CNS) was 11.2 µM and the GI50 (MCF7 breast) was 3.02 µM. For the same molecule, the TGI (MCF7 breast) was 12.7 µM, the GI50 (MDA-MB-231 breast) was 2.72 µM and the TGI (MDA-MB-231 breast) was 13.9 µM. It also gave a GI50 (NCI/ADR-RES ovarian) of 2.6 µM, a TGI (NCI/ADR-RES ovarian) of 12.7 µM and a GI50 (SF-295 CNS) of 2.68 µM. The TGI (SF-295 CNS) was 11.2 µM, the GI50 (UACC-257 melanoma) was 3.17 µM and the TGI (UACC-257 melanoma) was 10.3 µM. It also gave a GI50 (DU-145 prostate) of 3.95 µM, a TGI (DU-145 prostate) of 14.9 µM and a GI50 (SF-268 CNS) of 2.72 µM. For the same molecule, the TGI (SF-268 CNS) was 13 µM, the GI50 (CCRF-CEM leukemia) was 3.01 µM and the TGI (CCRF-CEM leukemia) was 22.3 µM. For the same molecule, the GI50 (NCI-H226 lung) was 3.15 µM, the TGI (NCI-H226 lung) was 17.2 µM and the GI50 (COLO 205 colon) was 1.47 µM. For the same molecule, the TGI (COLO 205 colon) was 2.82 µM, the GI50 (BT-549 breast) was 2.69 µM and the TGI (BT-549 breast) was 9.11 µM. For the same molecule, the GI50 (A549 NSCLC) was 3.39 µM, the TGI (A549 NSCLC) was 12.7 µM and the GI50 (K-562 leukemia) was 2.81 µM. For the same molecule, the TGI (K-562 leukemia) was over 100 µM, the GI50 (NCI-H522 lung) was 1.71 µM and the TGI (NCI-H522 lung) was 5.15 µM. It also gave a GI50 (A498 renal) of 1.25 µM, a TGI (A498 renal) of 10.5 µM and a GI50 (NCI-H23 lung) of 2.62 µM. The TGI (NCI-H23 lung) was 12.1 µM, the GI50 (EKVX NSCLC) was 1.49 µM and the TGI (EKVX NSCLC) was 10.7 µM. For the same molecule, the GI50 (SF-539 CNS) was 3.6 µM, the TGI (SF-539 CNS) was 13.6 µM and the GI50 (OVCAR-4 ovarian) was 2.25 µM. The TGI (OVCAR-4 ovarian) was 11.2 µM, the GI50 (SN12C renal) was 3.15 µM and the TGI (SN12C renal) was 13.5 µM. The GI50 (MDA-MB-435) was 2.16 µM and the TGI (MDA-MB-435) was 7.28 µM.
